Results as given in patent US20220029188A1, “REDOX FLOW BATTERY” (IP2IPO Innovations Limited, priority 2018, published 2022).
≈ marks a conversion by molar mass, not a printed value. Read-outs that look alike come from different tables or passages of the source.

Legend:
[1] = Rotating disk electrode measurements (Levich equation), Example 6; assay type: physicochemical; settings: 1 mM, kinematic viscosity 0.01 cm^2 s^−1
Procedure: The hydroquinone concentration was 1 mM and the kinematic viscosity of the solution was 0.01 cm^2 s^−1. Using the Levich equation, the diffusion coefficient of benzoquinone was calculated to be 1.5707×10^−7 cm^2 s^−1.

[2] = Cyclic voltammogram of 1 mM BQ in 1 M H2SO4; assay type: physicochemical; settings: 1 mM in 1 M sulphuric acid, scan rate 50 mV s^−1, glassy carbon electrode
Description: The working electrode was a glassy carbon electrode and the counter electrode was a platinum wire.

[3] = Rotating disk electrode LSV, Levich, Koutecký-Levich and Tafel analysis, 1 mM BQDS in 1 M H2SO4; assay type: physicochemical
Procedure: (§1) Rotating Disk Electrode (RDE) techniques were performed using a mirror polished glassy 5 mm diameter carbon disk electrode (Pine Instruments, AFE6R1 AU) equipped within a rotator (AFMSRCE). Electrochemical tests were performed using a potentiostat (Autolab, model PGSTAT20) and a three-compartment electrochemical glass cell which employed a Pt wire counter electrode. A saturated calomel reference electrode (SCE, E°=0.244 V vs. SHE at 25° C.) was used as the reference electrode, which was ionically connected to the main compartment of the electrochemical glass cell via a Luggin capillary.
(§2) The rotation rates were from 500 rpm to 3000 rpm. CV scan rates were from 10 mV s^−1 to 200 mV s^−1. LSV scan rate was 5 mV s^−1.

[4] = Standard electrochemical potential from CV experiments; assay type: physicochemical
Procedure: as §1, §2

[5] = comparison systems; cited from earlier work
[6] = comparison systems; cited from earlier work; remark: listed apart in the source
[7] = comparison species; cited from earlier work

## O=C1C=C(S(=O)(=O)O)C=C(S(=O)(=O)O)C1=O [BQ]
[1]
  diffusion coefficient: 1.5707×10^−7 cm^2 s^−1
[2]
  oxidation peak: 1 V vs MSE
  reduction peak: 0.7 V vs MSE

## O=S(=O)([O-])c1cc(O)c(O)c(S(=O)(=O)[O-])c1.[Na+].[Na+] [BQDS, 4,5-Dihydroxy-1,3-benzenedisulfonic acid disodium salt monohydrate]
[3]; determined from LSV, 1 mM in 1 M H2SO4
  diffusion coefficient: 5.15×10^−6 cm^2 s^−1
[3]; from Koutecký-Levich plots and Tafel plot
  charge transfer coefficient: 0.34
[4]
  standard electrochemical potential: 0.86 V vs SHE

## C[N+](C)(C)C[c-]1cccc1.[Cl-].[Fe+2].c1cc[cH-]c1 [Fe-NCL, (ferrocenylmethyl)trimethylammonium chloride]
[5]
  solubility: 4000 mM
[6]
  electrochemical potential: 0.67 V vs SHE
[7]
  diffusion coefficient: 3.74×10^−6 cm^2 s^−1

## CC1(C)CCCC(C)(C)N1[O] [TEMPO]
[6]
  electrochemical potential: 0.90 V vs SHE
[7]
  charge transfer coefficient: 0.68
  diffusion coefficient: 7.00×10^−8 cm^2 s^−1

## Oc1ccc(O)cc1 [hydroquinone]
[5]
  solubility: 500 mM (≈ 55.1 mg/mL)
[6]
  electrochemical potential: identical potential as Fe-NCL
[7]
  charge transfer coefficient: 0.51
  diffusion coefficient: 5.03×10^−6 cm^2 s^−1
